From ChEMBL document CHEMBL1132907, “The design and synthesis of the high efficacy, non-peptide CCK1 receptor agonist PD170292” (Bioorg Med Chem Lett, 2000)

What was measured:
[1] = target: T1, Gastrin/cholecystokinin type B receptor (Mus musculus, UniProt P56481); assay: Binding affinity towards Cholecystokinin type B receptor in mouse cortex membrane; format: cell membranes
T1 sequence (P56481 whole entry): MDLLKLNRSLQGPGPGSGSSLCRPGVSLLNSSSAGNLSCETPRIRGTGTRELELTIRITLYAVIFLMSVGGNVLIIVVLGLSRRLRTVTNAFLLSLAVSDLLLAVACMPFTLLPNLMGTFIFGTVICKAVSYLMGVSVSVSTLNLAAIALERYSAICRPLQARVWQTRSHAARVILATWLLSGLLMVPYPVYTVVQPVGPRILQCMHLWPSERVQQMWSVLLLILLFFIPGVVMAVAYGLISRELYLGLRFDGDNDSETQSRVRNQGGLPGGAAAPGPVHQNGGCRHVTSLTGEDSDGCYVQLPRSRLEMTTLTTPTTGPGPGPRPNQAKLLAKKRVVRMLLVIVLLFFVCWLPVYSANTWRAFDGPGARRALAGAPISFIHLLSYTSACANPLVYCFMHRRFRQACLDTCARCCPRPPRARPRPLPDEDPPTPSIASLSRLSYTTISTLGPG

[2] = target: T2, Cholecystokinin receptor type A (Rattus norvegicus, UniProt P30551); assay: Compound was evaluated for the binding affinity towards rat pancreatic Cholecystokinin type A receptor
T2 sequence (P30551 whole entry): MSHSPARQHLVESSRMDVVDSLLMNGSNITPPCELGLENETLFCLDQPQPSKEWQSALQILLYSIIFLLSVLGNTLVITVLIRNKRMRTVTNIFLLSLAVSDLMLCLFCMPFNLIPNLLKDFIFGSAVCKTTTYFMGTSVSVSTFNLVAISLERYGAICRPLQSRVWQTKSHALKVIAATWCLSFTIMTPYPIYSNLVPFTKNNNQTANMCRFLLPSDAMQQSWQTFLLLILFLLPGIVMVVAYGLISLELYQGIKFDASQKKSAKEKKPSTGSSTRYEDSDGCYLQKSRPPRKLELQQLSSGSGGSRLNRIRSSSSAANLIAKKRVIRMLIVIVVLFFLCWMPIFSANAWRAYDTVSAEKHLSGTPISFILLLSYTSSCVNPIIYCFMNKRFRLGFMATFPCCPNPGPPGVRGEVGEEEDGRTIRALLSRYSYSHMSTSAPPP

Rattus norvegicus = species: Rattus norvegicus; assay: Compound was evaluated for the stimulation of amylase secretion in isolated rat pancreatic acini
Jurkat [3] = assay: Compound was evaluated for calcium mobilization in Jurkat cells; format: functional, cell-based; conditions: Homo sapiens
Jurkat [4] = assay: Compound was tested for [Ca2+] mobilization in Jurkat cells at 1 uM; Inactive; format: functional, cell-based, Homo sapiens

IC50 [1] [nM]	IC50 [2] [nM]	EC50 (Rattus norvegicus) [nM]	IC50 (Jurkat [3]) [nM]	EC50 (Jurkat [4])	Compound	EC50 (Jurkat [3]) [nM]
0.083	75	–	–	–	CC(Cc1c[nH]c2ccccc12)(NC(=O)OC1C2CC3CC(C2)CC1C3)C(=O)N[C@H](CC(=O)O)Cc1ccc(F)cc1 (single isomer, unassigned)	–
3600	150	480	–	–	O=C(CC(Cc1c[nH]c2ccccc12)(NC(=O)OC1C2CC3CC(C2)CC1C3)C(=O)NCCc1ccccc1)NCCCCNC(=O)Nc1ccccc1Cl (configuration not stated)	–
6.7	1.2	5	40	Not Active	Cc1ccccc1NC(=O)NCCCC[C@@H](CC(=O)O)NC(=O)[C@@](C)(Cc1c[nH]c2ccccc12)NC(=O)OC1C2CC3CC(C2)CC1C3 (some centres not stated) [PD-170292]	–

Compound	IC50 [1] [nM]	IC50 [2] [nM]	EC50 (Rattus norvegicus) [nM]	IC50 (Jurkat [3]) [nM]	EC50 (Jurkat [4])	EC50 (Jurkat [3]) [nM]
CSCC[C@H](NC(=O)[C@H](Cc1ccc(OS(=O)(=O)O)cc1)NC(=O)[C@@H](N)CC(=O)O)C(=O)NCC(=O)N[C@@H](Cc1c[nH]c2ccccc12)C(=O)N[C@@H](CCSC)C(=O)N[C@@H](CC(=O)O)C(=O)N[C@@H](Cc1ccccc1)C(N)=O [SINCALIDE]	–	–	0.02	–	–	2
